Key:
[1] = system: apoptosis genes in HepG2 cells; experiment: RT-qPCR array, human apoptosis PCR array (PAHS-012Z); type: cell-based; settings: Hep-G2 cells, 14 μM, 24 h, vs control
caspase-9 in HepG2 cells = experiment: Activated caspase-9 by flow cytometry; settings: HepG2, at IC50, 24 h; control […]
Protocol: After treated, the cells were collected, and suspended in h at 37 °C in 5% CO2 incubator. The cells were harvested
with annexin V-FITC and PI for 1 h at room temperature cytometer equipped. The results were represented as the
in the dark and immediately analyzed by flow cytometry. percent change on the activity comparing with the control.
Caspase- 3, -8 and -9 activity determinations by our previously report [3].

COc1cc2ccnc3c2c(c1OC)-c1ccccc1C3=O.COc1cc2ccnc3c2c(c1OC)-c1ccccc1C3=O.COc1cc2ccnc3c2c(c1OC)-c1ccccc1C3=O.ClC(Cl)Cl.ClC(Cl)Cl.ClC(Cl)Cl.[Mn+2].[O-][Cl+3]([O-])([O-])[O-].[O-][Cl+3]([O-])([O-])[O-] [Complex 3, [Mn(LY)3](ClO4)2·3CHCl3]
Fold up/down-regulation, ABL1 [1]: 1.14
Fold up/down-regulation, ACTB [1]: -3.23
Fold up/down-regulation, AIFM1 [1]: 1.39
Fold up/down-regulation, AKT1 [1]: -1.50
Fold up/down-regulation, APAF1 [1]: -1.08
Fold up/down-regulation, B2M [1]: 1.32
Fold up/down-regulation, BAD [1]: -1.23
Fold up/down-regulation, BAG1 [1]: -3.76
Fold up/down-regulation, BAG3 [1]: 1.12
Fold up/down-regulation, BAK1 [1]: 2.10
Fold up/down-regulation, BAX [1]: 1.03
Fold up/down-regulation, BCL2 [1]: 1.08
Fold up/down-regulation, BCL2A1 [1]: 15.30
Fold up/down-regulation, BCL2L1 [1]: -1.97
Fold up/down-regulation, BCL2L2 [1]: 1.01
Fold up/down-regulation, BCL2L10 [1]: 1.21
Fold up/down-regulation, BCL2L11 [1]: 2.71
Fold up/down-regulation, BCL10 [1]: 1.24
Fold up/down-regulation, BFAR [1]: 1.36
Fold up/down-regulation, BID [1]: -1.24
Fold up/down-regulation, BIK [1]: 3.02
Fold up/down-regulation, BIRC2 [1]: 1.65
Fold up/down-regulation, BIRC3 [1]: -1.79
Fold up/down-regulation, BIRC5 [1]: -1.29
Fold up/down-regulation, BIRC6 [1]: 1.22
Fold up/down-regulation, BNIP2 [1]: 1.48
Fold up/down-regulation, BNIP3 [1]: 1.82
Fold up/down-regulation, BNIP3L [1]: 2.06
Fold up/down-regulation, BRAF [1]: 1.10
Fold up/down-regulation, CASP1 [1]: 1.61
Fold up/down-regulation, CASP2 [1]: -1.21
Fold up/down-regulation, CASP3 [1]: 1.46
Fold up/down-regulation, CASP4 [1]: 1.39
Fold up/down-regulation, CASP5 [1]: 1.47
Fold up/down-regulation, CASP6 [1]: 1.46
Fold up/down-regulation, CASP7 [1]: 1.23
Fold up/down-regulation, CASP8 [1]: 1.13
Fold up/down-regulation, CASP9 [1]: 3.47
Fold up/down-regulation, CASP10 [1]: -1.45
Fold up/down-regulation, CASP14 [1]: 8.51
Fold up/down-regulation, CD27 [1]: 4.42
Fold up/down-regulation, CD40 [1]: -1.09
Fold up/down-regulation, CD40LG [1]: 1.16
Fold up/down-regulation, CD70 [1]: -1.62
Fold up/down-regulation, CFLAR [1]: 1.19
Fold up/down-regulation, CIDEA [1]: 2.51
Fold up/down-regulation, CIDEB [1]: -1.33
Fold up/down-regulation, CRADD [1]: 1.01
Fold up/down-regulation, CYCS [1]: 2.27
Fold up/down-regulation, DAPK1 [1]: -1.22
Fold up/down-regulation, DFFA [1]: 1.10
Fold up/down-regulation, DIABLO [1]: 1.68
Fold up/down-regulation, FADD [1]: 1.24
Fold up/down-regulation, FAS [1]: -1.45
Fold up/down-regulation, FASLG [1]: 1.37
Fold up/down-regulation, GADD45A [1]: 3.98
Fold up/down-regulation, GAPDH [1]: -1.17
Fold up/down-regulation, HPRT1 [1]: -1.87
Fold up/down-regulation, HRK [1]: 49.72
Fold up/down-regulation, IGF1R [1]: -2.51
Fold up/down-regulation, IL10 [1]: 1.11
Fold up/down-regulation, LTA [1]: -1.40
Fold up/down-regulation, LTBR [1]: -1.24
Fold up/down-regulation, MCL1 [1]: 2.15
Fold up/down-regulation, NAIP [1]: -1.05
Fold up/down-regulation, NFKB1 [1]: -1.85
Fold up/down-regulation, NOD1 [1]: -1.30
Fold up/down-regulation, NOL3 [1]: -1.07
Fold up/down-regulation, PYCARD [1]: 2.80
Fold up/down-regulation, RIPK2 [1]: 1.45
Fold up/down-regulation, RPLP0 [1]: 1.17
Fold up/down-regulation, TNF [1]: 16.66
Fold up/down-regulation, TNFRSF1A [1]: -1.06
Fold up/down-regulation, TNFRSF1B [1]: -1.05
Fold up/down-regulation, TNFRSF9 [1]: 110.29
Fold up/down-regulation, TNFRSF10A [1]: -1.02
Fold up/down-regulation, TNFRSF10B [1]: 1.11
Fold up/down-regulation, TNFRSF11B [1]: 3.22
Fold up/down-regulation, TNFRSF21 [1]: 3.02
Fold up/down-regulation, TNFRSF25 [1]: 2.68
Fold up/down-regulation, TNFSF8 [1]: 3.25
Fold up/down-regulation, TNFSF10 [1]: 1.70
Fold up/down-regulation, TP53 [1]: -1.05
Fold up/down-regulation, TP53BP2 [1]: 1.53
Fold up/down-regulation, TP73 [1]: 1.38
Fold up/down-regulation, TRADD [1]: 1.11
Fold up/down-regulation, TRAF2 [1]: -1.21
Fold up/down-regulation, TRAF3 [1]: 1.01
Fold up/down-regulation, XIAP [1]: 1.26
FoldChange, ABL1 relative expression [1]: 1.14
FoldChange, ACTB relative expression [1]: 0.31
FoldChange, AIFM1 relative expression [1]: 1.39
FoldChange, AKT1 relative expression [1]: 0.67
FoldChange, APAF1 relative expression [1]: 0.92
FoldChange, B2M relative expression [1]: 1.32
FoldChange, BAD relative expression [1]: 0.81
FoldChange, BAG1 relative expression [1]: 0.27
FoldChange, BAG3 relative expression [1]: 1.12
FoldChange, BAK1 relative expression [1]: 2.10
FoldChange, BAX relative expression [1]: 1.03
FoldChange, BCL2A1 relative expression [1]: 15.30
FoldChange, BCL2L1 relative expression [1]: 0.51
FoldChange, BCL2L2 relative expression [1]: 1.01
FoldChange, BCL2L10 relative expression [1]: 1.21
FoldChange, BCL2L11 relative expression [1]: 2.71
FoldChange, BCL2 relative expression [1]: 1.08
FoldChange, BCL10 relative expression [1]: 1.24
FoldChange, BFAR relative expression [1]: 1.36
FoldChange, BID relative expression [1]: 0.80
FoldChange, BIK relative expression [1]: 3.02
FoldChange, BIRC2 relative expression [1]: 1.65
FoldChange, BIRC3 relative expression [1]: 0.56
FoldChange, BIRC5 relative expression [1]: 0.77
FoldChange, BIRC6 relative expression [1]: 1.22
FoldChange, BNIP2 relative expression [1]: 1.48
FoldChange, BNIP3L relative expression [1]: 2.06
FoldChange, BNIP3 relative expression [1]: 1.82
FoldChange, BRAF relative expression [1]: 1.10
FoldChange, CASP1 relative expression [1]: 1.61
FoldChange, CASP2 relative expression [1]: 0.83
FoldChange, CASP3 relative expression [1]: 1.46
FoldChange, CASP4 relative expression [1]: 1.39
FoldChange, CASP5 relative expression [1]: 1.47
FoldChange, CASP6 relative expression [1]: 1.46
FoldChange, CASP7 relative expression [1]: 1.23
FoldChange, CASP8 relative expression [1]: 1.13
FoldChange, CASP9 relative expression [1]: 3.47
FoldChange, CASP10 relative expression [1]: 0.69
FoldChange, CASP14 relative expression [1]: 8.51
FoldChange, CD27 relative expression [1]: 4.42
FoldChange, CD40LG relative expression [1]: 1.16
FoldChange, CD40 relative expression [1]: 0.92
FoldChange, CD70 relative expression [1]: 0.62
FoldChange, CFLAR relative expression [1]: 1.19
FoldChange, CIDEA relative expression [1]: 2.51
FoldChange, CIDEB relative expression [1]: 0.75
FoldChange, CRADD relative expression [1]: 1.01
FoldChange, CYCS relative expression [1]: 2.27
FoldChange, DAPK1 relative expression [1]: 0.82
FoldChange, DFFA relative expression [1]: 1.10
FoldChange, DIABLO relative expression [1]: 1.68
FoldChange, FADD relative expression [1]: 1.24
FoldChange, FAS relative expression [1]: 0.69
FoldChange, FASLG relative expression [1]: 1.37
FoldChange, GADD45A relative expression [1]: 3.98
FoldChange, GAPDH relative expression [1]: 0.86
FoldChange, HPRT1 relative expression [1]: 0.54
FoldChange, HRK relative expression [1]: 49.72
FoldChange, IGF1R relative expression [1]: 0.40
FoldChange, IL10 relative expression [1]: 1.11
FoldChange, LTA relative expression [1]: 0.71
FoldChange, LTBR relative expression [1]: 0.81
FoldChange, MCL1 relative expression [1]: 2.15
FoldChange, NAIP relative expression [1]: 0.95
FoldChange, NFKB1 relative expression [1]: 0.54
FoldChange, NOD1 relative expression [1]: 0.77
FoldChange, NOL3 relative expression [1]: 0.93
FoldChange, PYCARD relative expression [1]: 2.80
FoldChange, RIPK2 relative expression [1]: 1.45
FoldChange, RPLP0 relative expression [1]: 1.17
FoldChange, TNF relative expression [1]: 16.66
FoldChange, TNFRSF1A relative expression [1]: 0.94
FoldChange, TNFRSF1B relative expression [1]: 0.96
FoldChange, TNFRSF9 relative expression [1]: 110.29
FoldChange, TNFRSF10A relative expression [1]: 0.98
FoldChange, TNFRSF10B relative expression [1]: 1.11
FoldChange, TNFRSF11B relative expression [1]: 3.22
FoldChange, TNFRSF21 relative expression [1]: 3.02
FoldChange, TNFRSF25 relative expression [1]: 2.68
FoldChange, TNFSF8 relative expression [1]: 3.25
FoldChange, TNFSF10 relative expression [1]: 1.70
FoldChange, TP53BP2 relative expression [1]: 1.53
FoldChange, TP53 relative expression [1]: 0.95
FoldChange, TP73 relative expression [1]: 1.38
FoldChange, TRADD relative expression [1]: 1.11
FoldChange, TRAF2 relative expression [1]: 0.82
FoldChange, TRAF3 relative expression [1]: 1.01
FoldChange, XIAP relative expression [1]: 1.26
proportion of activated caspase-9 cells (caspase-9 in HepG2 cells): 17.0%

Reference: article PMC5601738, “Facile total synthesis of lysicamine and the anticancer activities of the Ru^II, Rh^III, Mn^II and Zn^II complexes of lysicamine” (Oncotarget, 2017)
